Tests used:
[1] = biological target: T1, Kv7.2/3 K+ channels (M-channels) (Homo sapiens, UniProt O43525+O43526); experiment: Whole-cell patch-clamp of recombinant Kv7.2/3 channels in CHO cells; assay type: cell-based; conditions: for M-channels (Kv7.2/Kv7.3) effect (opener / blocker / inactive): Kv7.2 and Kv7.3 coexpressed in CHO cells; for ΔV50 (mV), left-shift in half-activation potential: Kv7.2/3 in CHO cells; for EC50: concentration-dependent left-shift ΔV50, sigmoidal fit, read-out: M-channel opener potency EC50
T1 construct: expressed in transfected cells; host or cells: CHO cells
T1 sequence (O43526 whole entry): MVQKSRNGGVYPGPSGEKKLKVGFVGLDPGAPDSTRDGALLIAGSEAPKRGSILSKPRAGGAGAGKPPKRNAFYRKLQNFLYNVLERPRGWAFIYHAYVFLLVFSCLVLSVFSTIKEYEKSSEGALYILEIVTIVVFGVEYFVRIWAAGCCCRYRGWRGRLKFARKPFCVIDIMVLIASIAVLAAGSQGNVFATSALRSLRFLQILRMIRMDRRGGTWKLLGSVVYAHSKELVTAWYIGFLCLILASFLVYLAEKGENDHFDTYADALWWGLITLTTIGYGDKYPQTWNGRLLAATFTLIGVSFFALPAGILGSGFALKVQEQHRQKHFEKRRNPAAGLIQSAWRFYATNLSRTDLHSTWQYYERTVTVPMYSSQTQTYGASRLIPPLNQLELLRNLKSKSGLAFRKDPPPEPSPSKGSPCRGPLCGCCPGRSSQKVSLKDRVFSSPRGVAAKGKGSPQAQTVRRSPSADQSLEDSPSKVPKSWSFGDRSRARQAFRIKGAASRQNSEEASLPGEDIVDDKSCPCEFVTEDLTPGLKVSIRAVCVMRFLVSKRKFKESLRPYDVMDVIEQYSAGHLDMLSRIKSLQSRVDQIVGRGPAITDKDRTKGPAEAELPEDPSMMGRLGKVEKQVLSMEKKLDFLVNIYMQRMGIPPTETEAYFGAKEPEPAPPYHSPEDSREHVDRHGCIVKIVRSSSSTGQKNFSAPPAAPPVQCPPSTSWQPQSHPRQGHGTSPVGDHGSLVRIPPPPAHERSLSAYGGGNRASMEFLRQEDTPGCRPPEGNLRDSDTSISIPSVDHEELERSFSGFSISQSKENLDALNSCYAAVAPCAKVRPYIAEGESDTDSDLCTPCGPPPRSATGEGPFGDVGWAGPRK
T1 sequence (O43525 whole entry): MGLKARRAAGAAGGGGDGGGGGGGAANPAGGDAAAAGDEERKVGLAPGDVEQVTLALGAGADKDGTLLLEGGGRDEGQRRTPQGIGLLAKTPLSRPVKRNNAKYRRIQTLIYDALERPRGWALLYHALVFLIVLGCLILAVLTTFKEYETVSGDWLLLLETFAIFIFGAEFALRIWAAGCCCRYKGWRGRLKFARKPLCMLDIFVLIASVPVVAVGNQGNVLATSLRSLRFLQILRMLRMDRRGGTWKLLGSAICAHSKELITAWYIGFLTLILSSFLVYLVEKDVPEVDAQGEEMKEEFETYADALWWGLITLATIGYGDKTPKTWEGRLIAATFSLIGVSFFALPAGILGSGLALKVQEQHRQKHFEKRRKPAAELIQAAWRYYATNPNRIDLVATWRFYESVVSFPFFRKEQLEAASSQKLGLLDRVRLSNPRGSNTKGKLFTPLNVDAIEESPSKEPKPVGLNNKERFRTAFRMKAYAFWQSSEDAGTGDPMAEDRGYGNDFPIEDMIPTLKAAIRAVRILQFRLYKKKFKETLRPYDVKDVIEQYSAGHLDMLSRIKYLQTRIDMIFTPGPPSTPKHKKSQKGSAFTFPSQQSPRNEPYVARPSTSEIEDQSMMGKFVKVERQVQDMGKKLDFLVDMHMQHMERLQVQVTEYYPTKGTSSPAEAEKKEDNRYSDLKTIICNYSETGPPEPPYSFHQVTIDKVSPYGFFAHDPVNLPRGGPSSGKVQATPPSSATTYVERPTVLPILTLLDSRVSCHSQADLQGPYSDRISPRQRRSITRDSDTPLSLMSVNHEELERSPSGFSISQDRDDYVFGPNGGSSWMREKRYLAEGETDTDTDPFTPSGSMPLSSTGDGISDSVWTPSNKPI
Procedure: Chinese hamster ovary (CHO) cells were grown in Dulbecco's modified Eagle's medium (DMEM) supplemented with 2 mM glutamine, 10% fetal calf serum and antibiotics. Briefly, 40,000 cells seeded on poly-D-lysine-coated glass coverslips (13 mm diameter) in a 24-multiwell plate were transfected with pIRES-CD8 (0.5 µg) as a marker for transfection, and with Kv7.2 (0.5 µg) and Kv7.3 (0.5 µg). For electrophysiology, transfected cells were visualized approximately 40 hours following transfection, using anti-CD8 antibody-coated beads. Transfection was performed using Fugene 6 (Roche, Indianapolis IN, USA) according to the manufacturer's protocol.
Voltage-clamp recordings in CHO cells were performed, using the whole-cell configuration of the patch-clamp technique. Signals were amplified using an Axopatch 200B patch-clamp amplifier (Molecular Devices, Sunnyvale, CA), sampled at 2 kHz and filtered at 800 Hz via a 4-pole Bessel low pass filter. […] The patch pipettes were pulled from borosilicate glass (Warner Instrument Corp, USA) with a resistance of 2–5 MΩ. For K^+ current recordings in CHO cells, the intracellular pipette solution contained (in mM): 130 KCl, 1 MgCl2, 5 K2ATP, 5 EGTA, 10 HEPES, adjusted with KOH to pH 7.4 (290 mOsm). The extracellular solution contained (in mM): 140 NaCl, 4 KCl, 1.8 CaCl2, 1.2 MgCl2, 11 glucose, 5.5 HEPES, adjusted with NaOH to pH 7.4 (310 mOsm). Series resistances (3–13 MΩ) were compensated (75–90%) and periodically monitored.
Data analysis was performed using the Clampfit program (pClamp 9.2, Molecular Devices), Microsoft Excel (Microsoft) and Prism 4.0 (GraphPad). Chord conductance (G) was calculated by using the following equation: [drawing 1] where I corresponds to the current amplitude measured at the end of the pulse and Vrev, the calculated reversal potential. G was estimated at various test voltages V and then, normalized to a maximal conductance value, Gmax. Activation curves were fitted by one Boltzmann distribution: [drawing 2] where V50 is the voltage at which the current is half-activated and s is the slope factor. All data were expressed as mean±SEM. Statistically significant differences were assessed by Student's t-test. Analysis of sEPSCs and sIPSCs was done using the Clampfit program (pClamp 9.2, Molecular Devices) and included evaluation of the individual events as well as the average event amplitude and the integral of the event (total charge transfer).

[2] = test system: MES-induced tonic hind limb extension; experiment: Maximal electroshock seizure (MES) model; assay type: in vivo, mouse; conditions: mice, intraperitoneal, 30 min before electroshock; not shown
Procedure: This test is generally thought to be a model of generalized tonic-clonic seizure in human.
The anti-convulsant effect was measured by the maximal electroshock seizure model (MES) in ICR mice as previously described. The procedures followed for experimentation and maintenance of the animals were approved by the animal research ethics committee of Tel Aviv University and in accordance with the Guide for the Care and Use of Laboratory Animals (1996, National Academy of Sciences, Washington DC). Briefly, maximal electroshock was induced in adult mice by means of two transcorneal electrodes delivering an alternative current of 50 mA at 60 Hz for 0.2 sec using rodent shocker (Hugo Sachs Electronik, type 221). […] The drugs dissolved in 0.9% saline were administered intraperitoneally 30 min before the electroshock was performed. Animals failing to show tonic hind limb extension were scored as protected and were expressed in percentage.

[3] = test system: COX enzymes (CT26 mouse colon adenocarcinoma cells); experiment: COX inhibition, PGE2 production in CT26 cells; assay type: cell-based; conditions: for IC50: average of two experiments in triplicate, read-out: COX inhibition (IC50, µM) CT26
Description: (§1) In addition, the aromatic rings of the diphenylamine moiety were substituted with different electron donating or withdrawing groups. In a first screen, two parameters were checked: (a) the non-selective inhibition of COX-1/COX-2 enzyme activities, measured by the production of PGE2 in cultured mouse colon adenocarcinoma (CT26) and mouse Lewis lung carcinoma cells (D122) cells; (b) the M-channel activity, measured by the heterologous coexpression of Kv7.2 and Kv7.3 subunits in Chinese hamster ovary (CHO) cells.
(§2) Mouse colon adenocarcinoma CT26 and mouse Lewis lung carcinoma D122 cells were grown in DMEM (D122) or RPMI (CT26) supplemented with 10% fetal calf serum, 4% glutamine, 1% penicillin-streptomycin-nystatin and 3% non essential amino acids (D122) and maintained in a humidified 37°C incubator with 5% CO2. For the COX assays, cells were grown onto 24 multiwell plates. Before the assay, cells were washed with serum-free medium; then tested compounds were added to the medium and incubated for 30 min at 37°C after which 30 µM arachidonic acid was added and incubated for additional 20 min. At the end of the incubations, 10 µM indomethacin was added to stop the reaction and medium was transferred to another 24 multiwell plate for measuring PGE2 production by radioimmunoassay (DuPont-NEN; Boston, MA) according to manufacturer protocol. Protein determination was assayed on scraped cells and was used to normalize the amount of PGE2 production. Assays with purified ovine COX-1 and human recombinant COX-2 were performed using the COX inhibitor screening assay (Cayman chemical company, Ann Arbor, MI), according to manufacturer protocol.

[4] = test system: COX enzymes (D122 mouse Lewis lung carcinoma cells); experiment: COX inhibition, PGE2 production in D122 cells; assay type: cell-based; conditions: average of two experiments in triplicate
Description: as §1, §2

| M-channels (Kv7.2/Kv7.3) effect (opener / blocker / inactive) [1] | EC50 [1] [µM] | SMILES | further results |
| --- | --- | --- | --- |
| do not activate | – | COc1ccc2cc([C@H](C)C(=O)O)ccc2c1 [naproxen, reference compound] | – |
| opener | 25 | Cc1ccc(Cl)c(Nc2ccccc2C(=O)O)c1Cl [Meclofenamic acid, reference compound] | ΔV50 (mV), left-shift in half-activation potential [1]: −22.7 mV; M-channels (Kv7.2/Kv7.3) effect (opener / blocker / inactive) ([1]; listed as meclofenamate): openers |
| do not activate | – | CC(C(=O)O)c1cccc(Oc2ccccc2)c1 (stereo not shown) [fenoprofen, reference compound] | – |
| – | – | CCCC(CCC)C(=O)O [sodium valproate] | dose that fully prevented hind limb extension [2]: 500 mg/kg |
| opener | 17 | O=C(Cc1cc([N+](=O)[O-])ccc1Nc1c(Cl)cccc1Cl)NCCO [Compound 7] | effect on COX activity (Figure 1) [3]: completely unaffected; IC50 [3]: > 50 µM; ΔV50 (mV), left-shift in half-activation potential [1]: −12.2 mV; IC50 [4]: > 50 µM |
| openers | – | Cc1cccc(Nc2ccccc2C(=O)O)c1C [mefenamate, reference compound] | – |
| opener | 2.6 | O=C(O)Cc1ccccc1Nc1c(Cl)cccc1Cl [Diclofenac, reference compound] | IC50 [3]: 0.003 µM; M-channels (Kv7.2/Kv7.3) effect (opener / blocker / inactive) ([1]; listed as diclofenac): openers; IC50 [4]: 0.1 µM |
| do not activate | – | CC(C(=O)O)c1ccc(-c2ccccc2)c(F)c1 (stereo not shown) [flurbiprofen, reference compound] | – |
| openers | – | O=C(O)c1ccccc1Nc1cccc(C(F)(F)F)c1 [flufenamate, reference compound] | – |
| – | – | O=C1NC(=O)C(c2ccccc2)(c2ccccc2)N1 [phenytoin] | dose that fully prevented hind limb extension [2]: 20 mg/kg |

From article PMC2131780, “A Tale of Switched Functions: From Cyclooxygenase Inhibition to M-Channel Modulation in New Diphenylamine Derivatives” (PLoS ONE, 2007)
